Experiments:
Type in all cases: in vivo
[1] = tested on: spring wheat (cv. Passat); assay: Spring wheat pot trial, severe drought stress (Example 2)
Procedure: Spring wheat (cv. Passat) was cultivated in Mitcherlich pots as described above in example 1. The experiment was conducted with 6 replications in a vegetation hall. Experiments were carried out under semi controlled conditions at very low disease-pressure with insignificant infection rates, protected from any undesired rain or water impact. The water consumption of each pot was calculated on the basis of the recorded measurements of the weight of the pots prior to each irrigation event up to the defined set point.
Nitrogen fertilizer (totally 1.75 g N/pot) was added in equal amounts at 3 stages to allow optimal growth conditions throughout the life cycle. All plants/pots were grown at optimal water supply by watering 2-3 times a day to 60% of the water holding capacity of the soil until growth stage 55 (BBCH). Then, pots were only watered to 60% of the maximum water holding capacity of the soil after clear water stress symptoms on the plants were visible to apply severe drought stress.
Compound Ia (62.5 g/l, 2 L in 400 L water/ha) was applied at growth stage 39/49 (BBCH scale), which is an EC formulation of compound Ia. Control plants were not treated.
After ripening of the plants, the grain was harvested and uniformly dried to 5% moisture content. Grain yield per pot, grain yield per ear, number of grains per ear and number of grains per pot were determined as indicators of plant vigor and plant yield. The relation of grain yield to straw added to the grain yield was used to calculate the harvest index.

[2] = tested on: Soybeans (Pioneer 93-M-11, Crow C300 42); assay: Soybean field trials, Dinuba 2008 (Example 4)
Procedure: Soybeans were grown in 2008 in two field trials at the BASF experimental station in Dinuba, 10181 Avenue 416, Calif., U.S.A. In one trial, the variety Pioneer 93-M-11 was planted at a seeding rate of 88 kg/ha. In a second trial, the variety Crow C300 42 was planted at the same seeding rate. Both trials were setup as randomized complete block design with 5 replications, each. Plot size was 42 m^2. Compound la was used as an EC formulation (62.5 g a.i./L) with a dose rate of 0.64 L per hectar (40 g a.i./ha). The formulation was applied in a total spray volume of 300 L/ha. Compound Ia was sprayed at growth stage 34/37 (BBCH) with a tractor mounted spray boom with VS11003 spray nozzles at 3 bar spray pressure.
(§1) No disease symptoms were visible at the application time and no symptoms were detected at later stages.
Green leaf area, as an indicator of plant vigor, was assessed in the second trial (variety Crow C300 42) when all pods had reached their final size by estimating the green leaf area in 10 randomly chosen plants per plot. At maturity the grain was harvested and the grain yield per plot, as an indicator of plant yield, was determined (kg/plot). Finally, the grain yield per hectare was calculated (dt/ha). Thousand Grain Weight (TGW) was determined in the second trial (Crow C300 42).

Maize (Pioneer 34-N-45) = assay: Maize field trial, mixture with epoxiconazol, Colby synergism (Example 6); conditions: 50 g a.i./ha of each compound
Procedure: Maize was grown in 2008 in a field trial at the BASF experimental station in Dinuba, 10181 Avenue 416, Calif., U.S.A. The variety Pioneer 34-N-45 was planted at a seeding rate of 35.000 plants/ha. The trial was setup as a randomized bloc design with 5 replications, each. Plot size was 43 m^2.
The maize plants were either untreted, treated with epoxiconazol (A3), with compound Ia, and with a mixture comprising compound Ia and epoxiconazol. Epoxiconazol was applied as the commercial formulation OPUS™ (125 g a.i./L, SC formulation) at a dose rate of 0.4 L/ha (50 g a.i./ha). Compound Ia was used as an EC formulation (62.5 g a.i./L) with a dose rate of 0.8 L per hectar (50 g a.i./ha). Epoxiconazol was applied together with compound Ia (as a mixture) using a co-formulation of both compounds (EC formulation, 62.5 g a.i./L each) with a product rate of 0.8 L/ha. The formulation was applied in a total spray volume of 300 L/ha. Compound Ia was sprayed at growth stage 51/55 (BBCH) with a tractor mounted spray boom with VS11003 spray nozzles at 3 bar spray pressure.
as §1
At maturity the grain was harvested and the grain yield per plot, as an indicator of plant yield, was determined (kg/plot). Finally, the grain yield per hectare was calculated (dt/ha).
The efficacy was calculated as % increase of the grain yield (dt/ha) by each treatment compared to the untreated control.
The expected efficacies of the combinations of the active compounds were estimated using Colby's formula (Colby, S. R., Calculating synergistic and antagonistic responses of herbicide combinations, Weeds, 15, pp. 20-22, 1967) and compared with the observed efficacies.
E=x+y−x·y/100 Colby's formula: • E expected efficacy, expressed in % of the untreated control, when using the mixture of the active compounds A and B at the concentrations a and b • x efficacy, expressed in % of the untreated control, when using the active ingredient A at the concentration a • y efficacy, expressed in % of the untreated control, when using the active ingredient B at the concentration b

[3] = severe drought stress from BBCH 55, 2 L/ha EC at BBCH 39/49
[4] = 40 g a.i./ha, listed as compound Ia

In the case of `Cn1cc(C(=O)Nc2ccccc2-c2cc(F)c(F)c(F)c2)c(C(F)F)n1` [Compound Ia, N-(3′,4′,5′-trifluorobiphenyl-2-yl)-3-difluoromethyl-1-methyl-1H-pyrazole-4-carboxamide], the “Harvest index, change vs untreated control” value ([1]; severe drought stress) is reported as “(+3%)”, the “Number of grains per ear, change vs untreated control” value ([1]; severe drought stress) is reported as “(+3%)” and the “Single ear grain yield, change vs untreated control” value ([1]; severe drought stress) is reported as “(+3%)”. The “Harvest index (grain yield g/grain + straw yield g)” value [1, 3] was 0.42, the “Number of grains per ear” value [1, 3] was 49.9 and the “Single ear grain yield” value [1, 3] was 1.31 g/ear. The “Soybean grain yield (Trial 1) Pioneer 93M11, increase as % of untreated” value ([2]; 40 g a.i./ha) was “(+11.6%)”, the “Soybean grain yield (Trial 2) Crow C300 42, increase as % of untreated” value ([2]; 40 g a.i./ha) was “(+6.5%)” and the “Soybean grain yield, Mean of two trials, increase as % of untreated” value ([2]; 40 g a.i./ha) was “(+8.5%)”. The “Soybean grain yield (Trial 1) Pioneer 93M11” value ([2]; 40 g a.i./ha at BBCH 34/37) was 45.5 dt/ha, the “Soybean grain yield (Trial 2) Crow C300 42” value ([2]; 40 g a.i./ha at BBCH 34/37) was 67.1 dt/ha and the “Soybean grain yield, Mean of two trials” value ([2]; 40 g a.i./ha at BBCH 34/37) was 56.3 dt/ha. For the same compound, the “Soybean grain yield (Trial 1) Pioneer 93M11, increase as % of untreated” value [2, 4] was about 12%, the “Soybean grain yield, Mean of two trials, increase as % of untreated” value [2, 4] was 8.5% and the TGW ([2]; soybean Crow C300 42 (second trial), 40 g a.i./ha at BBCH 34/37) was 177.0 g. For the same compound, the “% Green leaf area” value ([2]; soybean Crow C300 42 (second trial), 40 g a.i./ha at BBCH 34/37, pods at final size) was 88.4%, the “TGW, increase as % of untreated” value ([2]; soybean Crow C300 42, 40 g a.i./ha) was “(+5.7%)” and the “Observed efficacy (% increase of grain yield vs untreated control)” value (Maize (Pioneer 34-N-45)) was 0.4%. The Grain yield (Maize (Pioneer 34-N-45); BBCH 51/55) was 154.9 dt/ha.
